# From US10280179B2, “Spiroquinoxaline derivatives as inhibitors of non-apoptotic regulated cell-death” (Helmholtz Zentrum Munchen—Deutches Forschungszentrum Fur …, priority 2013, dated 2019)
# Legend:
# Pfa1 cells = experiment: Inhibition of non-apoptotic cell death after tamoxifen-induced GPx4 knockout in a recombinant cell line (Example B.4); assay type: cell-based; settings: Mus musculus, read-out: Pfa1/TAM IC50
# In short: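 Immortalised murine fibroblasts with tamoxifen-inducible CreERT2 for ablation of both GPx4 copies (Pfa1 cells) received tamoxifen on day 0 together with test compound. Cell survival was measured by AlamarBlue after 72 hours.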
# C57BL/6 mice [1] = experiment: Kidney ischemia-reperfusion injury animal model (Example C.2); assay type: in vivo, mouse; settings: kidney IRI, compared to vehicle control, FIG. 3
# Protocol: FIG. 3: Efficacy of a compound of the invention in an animal model of kidney IRI.
# Briefly, to test such utility of compounds disclosed herein, ischemia is induced in the kidney of 6-8 week old C57BL/6 mice by interruption of the blood supply to the kidney via reversible clipping of the Arteria renalis for 30 min, followed by reperfusion for a period of 24 h. Mice are treated with compound (or vehicle control) generally as described in Example C.1 at 1 hour prior to and four hours after abdominal closure and once daily over a period of 14 days. Markers to be investigated for IRI of kidney include reduction of creatinine levels in the serum along with histopathological analysis.
# C57BL/6 mice [2] = experiment: Traumatic brain injury (controlled cortical impact) animal model (Example C.5); assay type: in vivo, mouse; settings: TBI (CCI), 24 h after CCI, compared to vehicle control, FIG. 4
# Protocol: FIG. 4: Efficiency of a compound of the invention in an animal model of traumatic brain injury.
# Briefly, to test such utility of compounds disclosed herein, male C57BL/6 mice are anesthetised prior to the induction of trauma. Core body temperature is maintained at 37° C. using a feedback-controlled heating pad connected to a rectal probe. To induce trauma, a craniotomy is prepared over the right parietal cortex. Controlled cortical impact (CCI) is delivered perpendicular to the surface of the brain with a custom-made CCI applicator for mice using the following parameters: 8 m/s velocity, 3 mm diameter, 1 mm brain displacement and 150 ms duration. Following CCI, the skull is closed by affixing the removed bone flap using veterinary-grade tissue glue (Vetbond, 3M, St. Paul, Minn.). Compounds are administered at 1 mg/Kg or 10 mg/Kg (dissolved in 40% PEG) 15 minutes after TBI induction and 40% PEG is included as vehicle control. The animals are recovered from anesthesia in an incubator heated to 33° C. Animals are sacrificed and the brain is removed 24 h after CCI and immediately frozen on crushed dry ice and stored at −80° C. […] The sections are stained with cresyl violet for quantifying the area of contused brain, and contusion volume is calculated and the effect of the compounds tested observed following analysis of such data.
smiles,measurement,setting,value
Clc1cccc(CNC2=Nc3ccccc3NC23CCNCC3)c1 [N-2],IC50,Pfa1 cells,< 0.02 µM
same,survival of mice suffering kidney-ischemic reperfusion injury,C57BL/6 mice [1]; dose 1 mg/kg,Improved survival
same,survival of mice suffering kidney-ischemic reperfusion injury,C57BL/6 mice [1]; dose 10 mg/kg,Improved survival
same,contusion volume in the brains of mice following traumatic brain injury,C57BL/6 mice [2],trend of a (non-significant) positive effect
